In patent publication EP1709964A2, “A method of cosmetic depigmentation care by applying at least one aurone” (ENGELHARD LYON, priority 2005, dated 2006):
Read-outs that look alike come from different tables or passages of the source.

Experiments:
normal human melanocytes = test: Cytotoxicity by PNPP determination (percentage viability); type: cell-based; conditions: 24 hours at 37°C, with respect to non-treated wells
Protocol: The cytotoxicity of the actives is studied on normal human melanocytes in a 24-well plate by a determination with PNPP (P-nitrophenyl phosphate), a substance which is converted into p-nitrophenol by the intracellular acid phosphatases of viable cells.
The absorbance of p-nitrophenol at 405 nm is directly proportional to the number of viable cells.
The actives are tested at 2 different concentrations (10^-4 M and 10^-5 M) and are added to the culture medium and are incubated at 37°C for 24 hours. The determination with PNPP is carried out on a cell mat and the results are expressed as a percentage viability with respect to the negative control (non-treated wells). The results obtained are summarized in Table 9 below : Tableau 9 : Percentages viability obtained for the various aurone derivatives on normal human melanocytes (the molecules were tested at 2 concentrations 10^-4 and 10^-5 M.

Human tyrosinase [1] = target: T1, Human tyrosinase (Homo sapiens, UniProt P14679); test: Inhibition of human tyrosinase in a monolayer after 24 h application of the actives on normal human melanocytes (MBTH/L-Dopa, OD 490 nm/protein); type: cell-based; conditions: for inhibition at 1000 µM: 10^-3 M; for Inhibition (%): model of Example 15
T1 construct: Normal human melanocytes (originating from abdominal plasty) are sown in a 24-well plate; endogenous in cells; host or cells: normal human melanocytes from abdominal plasty; donors of light, brown and black phototype
T1 sequence (P14679 19-529): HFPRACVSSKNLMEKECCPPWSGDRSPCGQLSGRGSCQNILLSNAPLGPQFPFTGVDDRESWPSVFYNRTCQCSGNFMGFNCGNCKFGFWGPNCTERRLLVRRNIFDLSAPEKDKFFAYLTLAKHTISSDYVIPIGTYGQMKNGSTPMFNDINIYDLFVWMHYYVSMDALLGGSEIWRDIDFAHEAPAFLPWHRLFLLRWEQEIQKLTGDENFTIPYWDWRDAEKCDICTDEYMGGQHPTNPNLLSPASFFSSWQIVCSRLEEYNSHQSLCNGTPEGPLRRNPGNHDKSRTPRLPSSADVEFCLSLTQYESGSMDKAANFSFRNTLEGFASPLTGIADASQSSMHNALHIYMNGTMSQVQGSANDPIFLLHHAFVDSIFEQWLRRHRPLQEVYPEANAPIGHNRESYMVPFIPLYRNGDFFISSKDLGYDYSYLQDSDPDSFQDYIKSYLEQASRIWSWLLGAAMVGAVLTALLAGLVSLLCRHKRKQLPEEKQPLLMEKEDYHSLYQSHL
Protocol: Normal human melanocytes (originating from abdominal plasty) are sown in a 24-well plate at the rate of 80,000 cells per well. They are cultivated up to confluence and the actives are applied for 24 hours in the culture media. After 24 hours, the media are removed and the melanocytes are picked up by mechanical action. An extraction is made by heat shock and the supernatants are then recovered and then incubated with MBTH (Sigma) and L-Dopa (Sigma).
The compound obtained in Example 9b was tested on melanocytes originating from various donors but of light phototypes according to the method described in Example 15. […] Table 6 : Inhibition of tyrosinase by compound 9b on 4 different donors.
The compound obtained in Example 9b is tested on cultures of melanocytes originating from 2 donors of brown phototypes and from one donor of negroid phototype. The method applied is that described in Example 15.
(§1) A study is made with molecules known in the literature for their depigmenting activity. These molecules are applied to the model described in Example 15 so as to compare their efficiency with respect to the aurones described above.

Human tyrosinase [2] = target: T1, Human tyrosinase; test: In vitro test of the inhibition of human tyrosinase from melanocyte extract (L-Dopa/MBTH, OD 490 nm); type: biochemical; conditions: isolated human tyrosinase, read-out: Inhibition of human tyrosinase, percentage inhibition
Protocol: Human tyrosinase obtained from melanocyte extracts originating from healthy donors catalyses the formation of L-Dopaquinone from L-Dopa. L-dopaquinone can be quantified by visible spectrophotometry at 490 nm by virtue of a chromogen : 3-methyl-2-benzothiazolinone hydrazone (MBTH).
The melanocyte extract is obtained after lysis of the cell membranes of the normal human melanocytes which lysis is carried out by a heat shock. The supernatant is recovered and then incubated with MBTH (Sigma) and L-Dopa (Sigma).

tyrosinase from mushroom = test: In vitro test of the inhibition of isolated tyrosinase (L-DOPA to dopachrome, OD 490 nm); type: biochemical; conditions: 490 nm
Excerpt: Tyrosinase catalyses the formation of L-dopaquinone, and then dopachrome, from L-Dopa. Dopachrome is a colored compound which is quantifiable by visible spectrophotometry at 490 nm. The use of an active which is capable of modifying the enzymatic activity manifests itself by a variation in the optical density at 490nm.
The ratio of the rates of formation of the dopachrome enables the activations or the inhibitions obtained with the various molecules tested to de determined precisely.
The sample to be tested is incubated in the presence of tyrosinase from mushroom (Sigma) for 5 minutes under agitation. L-DOPA (Sigma), substrate of the tyrosinase, is incubated for 10 minutes in the dark in the presence or the absence of the molecules to be tested. The calculation of the percentage inhibition is made by comparing the OD of the test to the OD of the negative control without molecule.
Within the context of this in vitro test, the aurone derivatives were tested at final concentrations of 10^-4M and 10^-5M.

melanocytes = test system: melanocytes
Excerpt: as §1

Compound: O=C1/C(=C/c2ccc(O)cc2)Oc2cc(O)cc(O)c21 [Example 9b, (Z)-4,6-Dihydroxy-2-(4'-hydroxybenzylidene)benzofuran-3(2H)-one]
- Percentages viability (normal human melanocytes; 10^-4 M): 90.31%
- Percentages viability (normal human melanocytes; 10^-5 M): 128.39%
- Inhibition of human tyrosinase after application on normal human melanocytes, percentage inhibition (Human tyrosinase [1]; 10^-4M, 24 hours): 75.31 ± 8.51%
- inhibition at 100 µM (Human tyrosinase [1]; 10^-4M, 24 hours, read-out: Inhibition of human tyrosinase after application on normal human melanocytes, percentage inhibition): 75.3%
- Inhibition of human tyrosinase after application on normal human melanocytes, percentage inhibition (Human tyrosinase [1]; 10^-5M, 24 hours): 35.23 ± 2.34%
- inhibition at 10 µM (Human tyrosinase [1]; 10^-5M, 24 hours, read-out: Inhibition of human tyrosinase after application on normal human melanocytes, percentage inhibition): 35.2%
- inhibition at 100 µM (Human tyrosinase [1]; Donor 1 (light phototype), 10^-4 M, read-out: Inhibition of tyrosinase): 37.8%
- inhibition at 10 µM (Human tyrosinase [1]; Donor 1 (light phototype), 10^-5 M, read-out: Inhibition of tyrosinase): -9.77%
- inhibition at 100 µM (Human tyrosinase [1]; Donor 2 (light phototype), 10^-4 M, read-out: Inhibition of tyrosinase): 43%
- inhibition at 10 µM (Human tyrosinase [1]; Donor 2 (light phototype), 10^-5 M, read-out: Inhibition of tyrosinase): -7.56%
- inhibition at 100 µM (Human tyrosinase [1]; Donor 3 (light phototype), 10^-4 M, read-out: Inhibition of tyrosinase): 63.4%
- inhibition at 10 µM (Human tyrosinase [1]; Donor 3 (light phototype), 10^-5 M, read-out: Inhibition of tyrosinase): 24.7%
- inhibition at 1000 µM (Human tyrosinase [1]; Donor A, brown phototype, read-out: Inhibitions of tyrosinase): 97.5%
- inhibition at 100 µM (Human tyrosinase [1]; Donor A, brown phototype, 10^-4 M, read-out: Inhibitions of tyrosinase): 45%
- inhibition at 10 µM (Human tyrosinase [1]; Donor A, brown phototype, 10^-5 M, read-out: Inhibitions of tyrosinase): 25.4%
- inhibition at 1000 µM (Human tyrosinase [1]; Donor B, brown phototype, read-out: Inhibitions of tyrosinase): 91.8%
- inhibition at 100 µM (Human tyrosinase [1]; Donor B, brown phototype, 10^-4 M, read-out: Inhibitions of tyrosinase): 67%
- inhibition at 10 µM (Human tyrosinase [1]; Donor B, brown phototype, 10^-5 M, read-out: Inhibitions of tyrosinase): 31.8%
- inhibition at 100 µM (Human tyrosinase [1]; Donor S (light phototype), 10^-4 M, read-out: Inhibition of tyrosinase): 75.3%
- inhibition at 10 µM (Human tyrosinase [1]; Donor S (light phototype), 10^-5 M, read-out: Inhibition of tyrosinase): 35.2%
- inhibition at 100 µM (Human tyrosinase [1]; Donor, 10^-4 M, read-out: Inhibition): 65.8%
- inhibition at 10 µM (Human tyrosinase [1]; Donor, 10^-5 M, read-out: Inhibition): 39.5%
- inhibition at 100 µM (Human tyrosinase [2]; 10^-4M): 18 ± 1.6%
- inhibition at 10 µM (Human tyrosinase [2]; 10^-5M): 5.62 ± 2.73%
- Inhibition of tyrosinase from mushroom, percentage inhibition (tyrosinase from mushroom; 10^-4M): 23.85 ± 2.42%
- Inhibition of tyrosinase from mushroom, percentage inhibition (tyrosinase from mushroom; 10^-5M): 0 ± 1.73%

Compound: O=C1O[C@H]([C@@H](O)CO)C(O)=C1OP(=O)(O)O [VitC PMG, reference compound]
- Inhibition (%) (Human tyrosinase [1]; 0.03%): 2.93%
- Inhibition (%) (Human tyrosinase [1]; 0.3%): 1.55%
- Inhibition (%) (Human tyrosinase [1]; 3%): -3.49%
- cytotoxicity (melanocytes): no
